Results reported in the Kinase Knowledgebase extract (Sharma et al. 2016).

Biological target: CDK2 (human) (UniProt P24941)
Experiment: Enzyme Assay

Compound | IC50 [nM]
O=C(Nc1cccc(OCC2CCNCC2)n1)Nc1csc(-c2ccccc2)n1 | < 500
O=C(Nc1cccc(OCC2CCNCC2)n1)Nc1csc(-c2ccncc2)n1 | < 500
O=C(Nc1cccc(NCCCO)n1)Nc1csc(-c2ccncc2)n1 | < 500
CN1CCC(c2cccc(NC(=O)Nc3csc(-c4ccccc4)n3)n2)CC1 | < 500
O=C(Nc1cc(CN2CCCCC2)ccn1)Nc1csc(-c2ccccc2)n1 | < 500
CC(C)(C)OC(=O)N1CC(COc2cccc(NC(=O)Nc3csc(-c4ccccc4)n3)n2)C1 | < 500
COc1cc(-c2nc(NC(=O)Nc3cccc(CN4CCCCC4)n3)cs2)ccn1 | < 500
O=C(Nc1cccc(C2=CCNCC2)n1)Nc1csc(-c2ccncc2)n1 | < 500
O=C(Nc1cccc(OCC2CNC2)n1)Nc1csc(Cl)n1 | < 500
CC1CCCN(Cc2cccc(NC(=O)Nc3csc(Cl)n3)n2)C1 (centres undefined) | < 500
O=C(Nc1cccc(OCCC2CCNCC2)n1)Nc1csc(-c2cccs2)n1 | < 500
O=C(Nc1cccc(OCCC2CCNCC2)n1)Nc1csc(Br)n1 | < 500
O=C(Nc1cccc(OCCC2CCNCC2)n1)Nc1csc(Cl)n1 | < 500
O=C(Nc1cccc(OCC2CNC2)n1)Nc1csc(Br)n1 | < 500
C[C@@H]1CCCN(Cc2cccc(NC(=O)Nc3csc(-c4ccncc4)n3)n2)C1 | < 500
CC(c1cccc(NC(=O)Nc2csc(-c3ccncc3)n2)n1)N1CCCCC1 (centres undefined) | < 500
O=C(Nc1cccc(NCC2CCCCN2)n1)Nc1csc(-c2ccncc2)n1 (centres undefined) | < 500
O=C(Nc1cccc(OCC2CCNCC2)n1)Nc1csc(Cl)n1 | < 500
CC(C)N(Cc1cccc(NC(=O)Nc2csc(Br)n2)n1)C(=O)OC(C)(C)C | < 500
O=C(Nc1cc(C(=O)N2CCCCC2)ccn1)Nc1csc(-c2ccncc2)n1 | < 500
CC1CCCN(Cc2cccc(NC(=O)Nc3csc(Br)n3)n2)C1 (centres undefined) | < 500
CC(C)(C)OC(=O)N1CCC[C@@H]1COc1cccc(NC(=O)Nc2csc(-c3ccncc3)n2)n1 | < 500
CN1CCC(COc2cccc(NC(=O)Nc3csc(-c4ccncc4)n3)n2)CC1 | < 500

Compound | IC50 [nM]
CC(C)(C)OC(=O)N1CCCCC1CNc1cccc(NC(=O)Nc2csc(-c3ccncc3)n2)n1 (centres undefined) | < 500
CC(C)NCc1cccc(NC(=O)Nc2csc(-c3ccccc3)n2)n1 | < 500
O=C(Nc1cc(C(=O)N2CCCCC2)ccn1)Nc1csc(-c2ccccc2)n1 | < 500
CC(C)(C)OC(=O)N1CCC(CCOc2cccc(NC(=O)Nc3csc(-c4ccccc4)n3)n2)CC1 | < 500
C[C@H]1CCCN(Cc2cccc(NC(=O)Nc3csc(-c4ccncc4)n3)n2)C1 | < 500
CCN1CCN(c2cccc(NC(=O)Nc3csc(-c4ccccc4)n3)n2)CC1 | < 500
CN1CCC(COc2cccc(NC(=O)Nc3csc(-c4ccccc4)n3)n2)CC1 | < 500
O=C(Nc1cccc(OCC2CCNCC2)n1)Nc1csc(Br)n1 | < 500
CC(C)(C)OC(=O)N1CCC(COc2cccc(NC(=O)Nc3csc(-c4ccncc4)n3)n2)C1 (centres undefined) | < 500
O=C(Nc1cccc(CN2CCCCC2)n1)Nc1csc(Cl)n1 | < 500
O=C(Nc1cccc(OCC2CCOC2)n1)Nc1csc(-c2ccncc2)n1 (centres undefined) | < 500
O=C(Nc1cccc(Oc2ccc(CN3CCCC3)cc2)n1)Nc1csc(-c2ccccc2)n1 | < 500
Cc1cc(C(=O)N2CCC(COc3cccc(NC(=O)Nc4csc(-c5ccncc5)n4)n3)C2)n(C(C)(C)C)n1 (centres undefined) | < 500
CN1CCC[C@H]1COc1cccc(NC(=O)Nc2csc(-c3ccccc3)n2)n1 | < 500
CC(C)NCc1cccc(NC(=O)Nc2csc(Cl)n2)n1 | < 500
CN1CC=C(c2cccc(NC(=O)Nc3csc(-c4ccncc4)n3)n2)CC1 | < 500
O=C(Nc1cccc(OCC2CNC2)n1)Nc1csc(-c2ccccc2)n1 | < 500
O=C(Nc1cccc(Oc2ccc(CN3CCCC3)cc2)n1)Nc1csc(Br)n1 | < 500
O=C(Nc1cccc(OCC2CCCO2)n1)Nc1csc(-c2ccncc2)n1 (centres undefined) | < 500
CN1CCC[C@H]1COc1cccc(NC(=O)Nc2csc(CS(=O)(=O)c3cccs3)n2)n1 | < 500
CCN(CC)C(=O)c1ccnc(NC(=O)Nc2csc(-c3ccncc3)n2)c1 | < 500
O=C(Nc1cccc(N2CCN(c3ncccn3)CC2)n1)Nc1csc(-c2ccccc2)n1 | < 500
CN1CCC(c2cccc(NC(=O)Nc3csc(-c4ccncc4)n3)n2)CC1 | < 500

Compound | IC50 [nM]
CC1CCCN(Cc2cccc(NC(=O)Nc3csc(-c4ccccc4)n3)n2)C1 (centres undefined) | < 500
CN1CCC[C@@H]1COc1cccc(NC(=O)Nc2csc(-c3ccncc3)n2)n1 | < 500
O=C(Nc1cccc(OCCC2CCNCC2)n1)Nc1csc(C2CC2)n1 | < 500
Cn1cccc1C(=O)N1CCC(COc2cccc(NC(=O)Nc3csc(-c4ccncc4)n3)n2)C1 (centres undefined) | < 500
CC(C)N(Cc1cccc(NC(=O)Nc2csc(Cl)n2)n1)C(=O)OC(C)(C)C | < 500
CN1CC=C(c2cccc(NC(=O)Nc3csc(Br)n3)n2)CC1 | < 500
CC(C)(C)OC(=O)N1CC=C(c2cccc(NC(=O)Nc3csc(-c4ccncc4)n3)n2)CC1 | < 500
CC(C)(C)OC(=O)N1CCC(COc2cccc(NC(=O)Nc3csc(-c4ccncc4)n3)n2)CC1 | < 500
CN1CC(COc2cccc(NC(=O)Nc3csc(-c4ccncc4)n3)n2)C1 | < 500
CN1CC(COc2cccc(NC(=O)Nc3csc(-c4ccccc4)n3)n2)C1 | < 500
CCN(CC)Cc1ccnc(NC(=O)Nc2csc(-c3ccncc3)n2)c1 | < 500
CN1CC=C(c2cccc(NC(=O)Nc3csc(-c4ccccc4)n3)n2)CC1 | < 500
CC(C)NCc1cccc(NC(=O)Nc2csc(-c3ncc(C(C)(C)C)o3)n2)n1 | < 500
CC(C)(C)c1cnc(-c2nc(NC(=O)Nc3cccc(OCCC4CCNCC4)n3)cs2)o1 | < 500
CN1CCC[C@H]1COc1cccc(NC(=O)Nc2csc(-c3cccc(S(N)(=O)=O)c3)n2)n1 | < 500
O=C(Nc1cccc(CN2CCCC2)n1)Nc1csc(-c2ccccc2)n1 | < 500
O=C(Nc1cccc(NCCCO)n1)Nc1csc(Br)n1 | < 500
O=C(Nc1csc(-c2ccncc2)n1)Nc1ncccn1 | < 500
CC1CCCC(C)N1Cc1cccc(NC(=O)Nc2csc(-c3ccncc3)n2)n1 (centres undefined) | < 500
O=C(Nc1cccc(OCCC2CCNCC2)n1)Nc1csc(-c2ccccc2)n1 | < 500
O=C(Nc1cc(C(=O)N2CCCCC2)ccn1)Nc1csc(Br)n1 | < 500
CCN(CC)C(=O)c1cccc(NC(=O)Nc2csc(-c3ccccc3)n2)n1 | < 500
O=C(Nc1cccc(OCC2CCNC2)n1)Nc1csc(-c2ccncc2)n1 (centres undefined) | < 500
